Data taken from ChEMBL document CHEMBL4422652, “Synthesis and biological evaluation of novel oleanolic acid analogues as potential α-glucosidase inhibitors” (Eur J Med Chem, 2019).
Values belong to the molecule of their own block, whether it stands above or below them. Activity calls are given as the source filed them. The calls are words filed in the database; no cut-off is given here.

Legend:
[1] = Inhibition of baker's yeast alpha-glucosidase using phenol-alphaD-glycopyranoside as substrate preincubated for 10 mins followed by substrate addition and measured after 30 mins; parameters: species or system Saccharomyces cerevisiae
Mus musculus [2] = test: Hypoglycemic activity in streptozocin-induced diabetic Kunming mouse assessed as blood glucose level at 50 mg/kg, po administered once daily for 18 days measured on day 12 post dose (reference value: 23.09 +/- 1.45 mM); assay type: functional
Mus musculus [3] = test: Hypoglycemic activity in streptozocin-induced diabetic Kunming mouse assessed as blood glucose level at 50 mg/kg, po administered once daily for 18 days measured on day 12 post dose (reference value: 23.27 +/- 1.03 mM); assay type: functional
Mus musculus [4] = test: Hypoglycemic activity in streptozocin-induced diabetic Kunming mouse assessed as blood glucose level at 50 mg/kg, po administered once daily for 18 days measured on day 6 post dose (reference value: 22.31 +/- 1.05 mM); assay type: functional
Mus musculus [5] = test: Hypoglycemic activity in streptozocin-induced diabetic Kunming mouse assessed as blood glucose level at 50 mg/kg, po administered once daily for 18 days measured on day 1 post dose (reference value: 18.86 +/- 0.7 mM); assay type: functional
Saccharomyces cerevisiae = test: Non-competitive inhibition of baker's yeast alpha-glucosidase assessed as Km for substrate using varying levels of phenol-alphaD-glycopyranoside as substrate preincubated for 10 mins followed by substrate addition and measured after 30 mins by double reciprocal plot analysis
[6] = Toxicity in streptozocin-induced diabetic Kunming mouse assessed as effect on body weight at 50 mg/kg, po administered once daily for 18 days measured every 6 days starting from day 1 during compound dosing; assay type: organism-based; conditions: in vivo
[7] = Non-competitive inhibition of baker's yeast alpha-glucosidase using varying levels of phenol-alphaD-glycopyranoside as substrate preincubated for 10 mins followed by substrate addition and measured after 30 mins by double reciprocal plot analysis; parameters: species or system Saccharomyces cerevisiae
NIH3T3 = test: Cytotoxicity against mouse 3T3 cells assessed as growth inhibition measured after 48 hrs by MTT assay; assay type: cell-based; conditions: NIH3T3, 48 h
Mus musculus [8] = test: Hypoglycemic activity in streptozocin-induced diabetic Kunming mouse assessed as reduction in blood glucose AUC at 50 mg/kg, po treated 30 mins prior to glucose challenge and measured up to 210 mins by OGTT; assay type: functional, organism-based
Mus musculus [9] = test: Hypoglycemic activity in streptozocin-induced diabetic Kunming mouse assessed as reduction in blood glucose level at 50 mg/kg, po treated 30 mins prior to glucose challenge and measured up to 210 mins by OGTT; assay type: functional, organism-based
Mus musculus [10] = test: Hypoglycemic activity in streptozocin-induced diabetic Kunming mouse assessed as reduction in blood glucose level at 50 mg/kg, po measured at 9 hrs post dose; assay type: functional, organism-based
[11] = Inhibition of baker's yeast alpha-glucosidase using PNPG as substrate after 10 mins by spectrophotometric method; parameters: species or system Saccharomyces cerevisiae
Mus musculus [12] = test: Hypoglycemic activity in streptozocin-induced diabetic Kunming mouse assessed as reduction in blood glucose level at 50 mg/kg, po measured at 7 hrs post dose; assay type: functional, organism-based

Compound: C[C@H]1O[C@H](O[C@H]2[C@H](O)[C@@H](O)[C@@H](O[C@H]3[C@H](O)[C@@H](O)C(O)O[C@@H]3CO)O[C@@H]2CO)[C@H](O)[C@@H](O)[C@@H]1N[C@H]1C=C(CO)[C@@H](O)[C@H](O)[C@H]1O (stereo partly drawn) [ACARBOSE]
Activity (Mus musculus [2]): 20.41 mM
IC50 [1]: 579 µM
Activity (Mus musculus [3]): 15.48 mM
Activity (Mus musculus [4]): 22.44 mM
Activity (Mus musculus [5]): 19.14 mM

Compound: CC1(C)CC[C@@]23CC[C@]4(C)[C@](OC2=O)([C@H](F)C[C@@H]2[C@@]5(C)C/C(=C\c6ccc(C(F)(F)F)nc6)C(=O)C(C)(C)[C@@H]5CC[C@]24C)[C@@H]3C1
IC50 [1]: 1.86 µM

Compound: COc1ccccc1/C=C1\C[C@]2(C)[C@H]3C[C@@H](F)[C@]45OC(=O)[C@@]6(CCC(C)(C)C[C@H]64)CC[C@@]5(C)[C@]3(C)CC[C@H]2C(C)(C)C1=O
IC50 [1]: 2.74 µM

Compound: CC1(C)CC[C@@]23CC[C@]4(C)[C@](OC2=O)([C@H](F)C[C@@H]2[C@@]5(C)CC[C@H](O)C(C)(C)[C@@H]5CC[C@]24C)[C@@H]3C1
IC50 [1]: 8.12 µM

Compound: COc1ccc(/C=C2\C[C@]3(C)[C@H]4C[C@@H](F)[C@]56OC(=O)[C@@]7(CCC(C)(C)C[C@H]75)CC[C@@]6(C)[C@]4(C)CC[C@H]3C(C)(C)C2=O)c(OC)c1
IC50 [1]: 1.92 µM

Compound: COc1cccc(/C=C2\C[C@]3(C)[C@H]4C[C@@H](F)[C@]56OC(=O)[C@@]7(CCC(C)(C)C[C@H]75)CC[C@@]6(C)[C@]4(C)CC[C@H]3C(C)(C)C2=O)c1
IC50 [1]: 3.29 µM

Compound: CC1(C)CC[C@@]23CC[C@]4(C)[C@](OC2=O)([C@H](F)C[C@@H]2[C@@]5(C)C/C(=C\c6cnccn6)C(=O)C(C)(C)[C@@H]5CC[C@]24C)[C@@H]3C1
IC50 [1]: 3.14 µM

Compound: Cc1ccccc1/C=C1\C[C@]2(C)[C@H]3C[C@@H](F)[C@]45OC(=O)[C@@]6(CCC(C)(C)C[C@H]64)CC[C@@]5(C)[C@]3(C)CC[C@H]2C(C)(C)C1=O
IC50 [1]: 1.58 µM

Compound: CC1(C)CC[C@@]23CC[C@]4(C)[C@](OC2=O)([C@H](F)C[C@@H]2[C@@]5(C)C/C(=C\c6ccccn6)C(=O)C(C)(C)[C@@H]5CC[C@]24C)[C@@H]3C1
IC50 [1]: 2.67 µM

The next lines start with results.

IC50 [1]: 1.86 µM
Compound: CC1(C)CC[C@@]23CC[C@]4(C)[C@](OC2=O)([C@H](F)C[C@@H]2[C@@]5(C)C/C(=C\c6cccc(Br)c6)C(=O)C(C)(C)[C@@H]5CC[C@]24C)[C@@H]3C1

IC50 [1]: 1.06 µM
Compound: CC1(C)CC[C@@]23CC[C@]4(C)[C@](OC2=O)([C@H](F)C[C@@H]2[C@@]5(C)C/C(=C\c6ccc(Br)cc6)C(=O)C(C)(C)[C@@H]5CC[C@]24C)[C@@H]3C1

Km (Saccharomyces cerevisiae): 120 µM
Ki [7]: 0.88 µM
IC50 [1]: 0.69 µM
Compound: CC1(C)CC[C@@]23CC[C@]4(C)[C@](OC2=O)([C@H](F)C[C@@H]2[C@@]5(C)C/C(=C\c6ccc(Cl)cc6)C(=O)C(C)(C)[C@@H]5CC[C@]24C)[C@@H]3C1
Activity (Mus musculus [2]): 20.25 mM
Activity [6]: Non-Toxic
IC50 (NIH3T3): > 300 µM
Activity (Mus musculus [8]): Active
Activity (Mus musculus [3]): 16.22 mM
Activity (Mus musculus [9]): Active
Activity (Mus musculus [10]): Active
Activity (Mus musculus [4]): 23.59 mM
Activity (Mus musculus [5]): 19.59 mM

IC50 [11]: 1.9 µM
IC50 [1]: 1.51 µM
Compound: CC1(C)CC[C@@]23CC[C@]4(C)[C@](OC2=O)([C@H](F)C[C@@H]2[C@@]5(C)C/C(=C\c6ccc(C(F)(F)F)cc6)C(=O)C(C)(C)[C@@H]5CC[C@]24C)[C@@H]3C1

IC50 [1]: 1.51 µM
Compound: CC1(C)CC[C@@]23CC[C@]4(C)[C@](OC2=O)([C@H](F)C[C@@H]2[C@@]5(C)C/C(=C\c6ccc(F)cc6)C(=O)C(C)(C)[C@@H]5CC[C@]24C)[C@@H]3C1

Km (Saccharomyces cerevisiae): 120 µM
Ki [7]: 0.52 µM
IC50 [1]: 0.33 µM
Compound: COc1ccc(/C=C2\C[C@]3(C)[C@H]4C[C@@H](F)[C@]56OC(=O)[C@@]7(CCC(C)(C)C[C@H]75)CC[C@@]6(C)[C@]4(C)CC[C@H]3C(C)(C)C2=O)cc1
Activity (Mus musculus [2]): 17.49 mM
Activity [6]: Non-Toxic
Activity (Mus musculus [12]): Active
IC50 (NIH3T3): > 300 µM
Activity (Mus musculus [8]): Active
Activity (Mus musculus [3]): 13.74 mM
Activity (Mus musculus [9]): Active
Activity (Mus musculus [4]): 19.96 mM
Activity (Mus musculus [5]): 18.61 mM

IC50 [1]: 3.18 µM
Compound: CC1(C)CC[C@@]23CC[C@]4(C)[C@](OC2=O)([C@H](F)C[C@@H]2[C@@]5(C)C/C(=C\c6ccc(-n7cncn7)cc6)C(=O)C(C)(C)[C@@H]5CC[C@]24C)[C@@H]3C1
